# Test results taken from patent EP1561465A2, “Methods of use of fluoroquinolone compounds against bacteria” (LG Life Sciences, Ltd., priority 1999, dated 2001).
# Like-named read-outs stand apart in the source and are kept apart here.
# Key:
# Format in all cases: cell-based
# Staphylococcus aureus = experiment: MIC by NCCLS broth microdilution, 1100 Japanese clinical isolates 1997-1998; settings: for MIC: Staphylococcus aureus quinolone resistant, read-out: MIC
# Streptococcus pneumoniae [1] = experiment: as above; settings: for MIC50 / MIC90 / MIC: Streptococcus pneumoniae; for MIC50: read-out: MIC50; for MIC90: read-out: MIC90; for MIC: Streptococcus pneumoniae quinolone resistant
# Klebsiella pneumoniae = experiment: as above
# Hafnia alvei = experiment: MIC by agar dilution (NCCLS M7-A4), 288 enteropathogenic isolates, eight quinolones; settings: Hafnia alvei (n = 32)
# Salmonella spp. [2] = experiment: MIC by NCCLS broth microdilution, 1100 Japanese clinical isolates 1997-1998; settings: Salmonella spp. (n=29)
# Enterococcus faecalis = experiment: as above; settings: for MIC50 / MIC90: Enterococcus faecalis; for MIC90: read-out: MIC90
# Shigella spp. = experiment: MIC by agar dilution (NCCLS M7-A4), 288 enteropathogenic isolates, eight quinolones; settings: Shigella spp. (n = 21)
# Haemophilus influenzae [3] = experiment: MIC by agar dilution (NCCLS), 411 isolates Buenos Aires 1998-99; settings: Haemophilus influenzae (n = 65)
# Streptococcus pyogenes = experiment: as above; settings: Streptococcus pyogenes (n = 69)
# Haemophilus influenzae [4] = experiment: MIC by two-fold serial agar dilution, Sensitivity Disk agar-N (Kitasato isolates); settings: Haemophilus influenzae (24)
# Enterobacter cloacae = experiment: MIC by NCCLS broth microdilution, 1100 Japanese clinical isolates 1997-1998; settings: Enterobacter cloacae (n=40)
# Salmonella spp. [5] = experiment: MIC by agar dilution (NCCLS M7-A4), 288 enteropathogenic isolates, eight quinolones; settings: for MIC: ciprofloxacin MIC ≥[…], read-out: MIC; for % Susceptible / MIC50 / MIC90 / MIC Range: Salmonella spp. (n = 106)
# Enterococcus gallinarum = experiment: MIC by NCCLS broth microdilution, 1100 Japanese clinical isolates 1997-1998; settings: Enterococcus gallinarum, GALLINARUM, Enterococcus gallinarum (vanC1), read-out: MIC
# Campylobacter jejuni = experiment: MIC by agar dilution (NCCLS M7-A4), 5% sheep blood, microaerophilic 48 h; settings: Campylobacter jejuni (n=91)
# Streptococcus pneumoniae [6] = experiment: MIC by two-fold serial agar dilution, Sensitivity Disk agar-N (Kitasato isolates); settings: Streptococcus pneumoniae; for MIC90: read-out: MIC90; for MIC: read-out: MIC Range; for MIC50: read-out: MIC50
# Enterococcus faecium = experiment: MIC by NCCLS broth microdilution, 1100 Japanese clinical isolates 1997-1998; settings: for MIC: Enterococcus faecium
# [7] = system: Mycobacterium tuberculosis (MTB); experiment: MIC by proportions method (NCCLS M24-T, 1995), 82 MTB strains; settings: Mycobacterium tuberculosis; 82 MTB strains
# Escherichia coli = experiment: MIC by agar dilution (NCCLS), 322 nosocomial Gram negative isolates, Athens 1998; settings: Escherichia coli; n = 57 isolates
# [8] = Staphylococcus aureus, Staphylococcus aureus oxacillin resistant (n=57)
# [9] = Streptococcus pneumoniae amoxicillin resistant (n=40)
# [10] = Streptococcus pneumoniae amoxicillin susceptible (n=35)
# [11] = Streptococcus pneumoniae erythromycin resistant (n=34)
# [12] = Streptococcus pneumoniae erythromycin susceptible (n=11)
# [13] = Enterococcus faecalis ciprofloxacin resistant (n=15)
# [14] = Enterococcus faecalis ciprofloxacin susceptible (n=24)
# [15] = Salmonella, S. tshiongwe (n = 1)
smiles,measurement,setting,value
"C[C@H]1COc2c(N3CCN(C)CC3)c(F)cc3c(=O)c(C(=O)O)cn1c23 [Levofloxacin, levofloxacin]",MIC Range,Staphylococcus aureus; Staphylococcus aureus oxacillin susceptible (n=41),0.125 to 1 µg/mL
same,MIC50,Staphylococcus aureus; [8],4 µg/mL
same,MIC90,Staphylococcus aureus; [8],64 µg/mL
same,MIC50,"Staphylococcus aureus; Staphylococcus aureus, Staphylococcus aureus oxacillin susceptible (n=41)",0.25 µg/mL
same,MIC,"Staphylococcus aureus; Staphylococcus aureus, strain TMS3",> 128 µg/mL
same,MIC,"Staphylococcus aureus; Staphylococcus aureus, strain TMS4",16 µg/mL
same,MIC,"Staphylococcus aureus; Staphylococcus aureus, strain TMS5",4 µg/mL
same,MIC,"Staphylococcus aureus; Staphylococcus aureus, strain TMS6",2 µg/mL
same,MIC Range,Streptococcus pneumoniae [1]; [9],0.5 to 8 µg/mL
same,MIC Range,Streptococcus pneumoniae [1]; [10],0.063 to 8 µg/mL
same,MIC Range,Streptococcus pneumoniae [1]; [11],0.063 to 8 µg/mL
same,MIC Range,Streptococcus pneumoniae [1]; [12],0.5 to 1 µg/mL
same,MIC50,Streptococcus pneumoniae [1]; [9],1 µg/mL
same,MIC90,Streptococcus pneumoniae [1]; [9],1 µg/mL
same,MIC50,Streptococcus pneumoniae [1]; [10],1 µg/mL
same,MIC90,Streptococcus pneumoniae [1]; [10],1 µg/mL
same,MIC50,Streptococcus pneumoniae [1]; [11],1 µg/mL
same,MIC90,Streptococcus pneumoniae [1]; [11],1 µg/mL
same,MIC50,Streptococcus pneumoniae [1]; [12],1 µg/mL
same,MIC90,Streptococcus pneumoniae [1]; [12],1 µg/mL
same,MIC,Streptococcus pneumoniae [1]; strain TMS1,1 µg/mL
same,MIC,Streptococcus pneumoniae [1]; strain TMS2,16 µg/mL
same,MIC90,Klebsiella pneumoniae; Klebsiella pneumoniae,0.125 µg/mL
same,MIC50,Klebsiella pneumoniae; Klebsiella pneumoniae (n=35),0.032 µg/mL
same,MIC Range,Klebsiella pneumoniae; Klebsiella pneumoniae (n=35),0.016 to 4 µg/mL
same,% Susceptible,Hafnia alvei,100%
same,MIC50,Hafnia alvei,0.03 µg/mL
same,MIC90,Hafnia alvei,0.03 µg/mL
same,MIC Range,Hafnia alvei,≤0.015 to 0.03 µg/mL
same,MIC50,Salmonella spp. [2],0.063 µg/mL
same,MIC90,Salmonella spp. [2],0.063 µg/mL
same,MIC Range,Salmonella spp. [2],0.032 to 0.063 µg/mL
same,MIC Range,Enterococcus faecalis; [13],2 to 32 µg/mL
same,MIC Range,Enterococcus faecalis; [14],1 to 2 µg/mL
same,MIC50,Enterococcus faecalis; [13],16 µg/mL
same,MIC90,Enterococcus faecalis; [13],32 µg/mL
same,MIC50,Enterococcus faecalis; [14],1 µg/mL
same,MIC90,Enterococcus faecalis; [14],2 µg/mL
same,% Susceptible,Shigella spp.,100%
same,MIC50,Shigella spp.,0.03 µg/mL
same,MIC90,Shigella spp.,0.03 µg/mL
same,MIC90,Haemophilus influenzae [3],0.016 µg/mL
same,MIC Range,Haemophilus influenzae [3],≤0.004 to 0.25 µg/mL
same,MIC Range,Streptococcus pyogenes,0.25 to 2 µg/mL
same,MIC50,Haemophilus influenzae [4],0.031 µg/mL
same,MIC90,Haemophilus influenzae [4],0.031 µg/mL
same,MIC Range,Haemophilus influenzae [4],0.016 to 0.031 µg/mL
same,MIC50,Enterobacter cloacae,0.032 µg/mL
same,MIC90,Enterobacter cloacae,0.5 µg/mL
same,MIC Range,Enterobacter cloacae,0.016 to 1 µg/mL
same,MIC,Salmonella spp. [5]; S. hadar (n = 2),1 µg/mL
same,MIC,Salmonella spp. [5]; S. newport (n = 1),1 µg/mL
same,MIC,Salmonella spp. [5]; S. virchow (n = 2),0.25 µg/mL
same,% Susceptible,Salmonella spp. [5],100%
same,MIC50,Salmonella spp. [5],0.06 µg/mL
same,MIC90,Salmonella spp. [5],0.25 µg/mL
same,MIC Range,Salmonella spp. [5],0.06 to 1 µg/mL
same,MIC,Salmonella spp. [5]; [15],1 µg/mL
same,MIC,Enterococcus gallinarum; strain TMS1,1 µg/mL
same,MIC,Enterococcus gallinarum; strain TMS2,2 µg/mL
same,MIC,Enterococcus gallinarum; strain TMS3,1 µg/mL
same,MIC,Enterococcus gallinarum; strain TMS4,0.5 µg/mL
same,% Susceptible,Campylobacter jejuni,31.86%
same,MIC50,Campylobacter jejuni,8 µg/mL
same,MIC90,Campylobacter jejuni,32 µg/mL
same,MIC Range,Campylobacter jejuni,0.06 to 128 µg/mL
same,MIC90,"Streptococcus pneumoniae [6]; 18 h, Ciprofloxacin-resistant (21), ciprofloxacin MIC ≥8 µg/ml",16 µg/mL
same,MIC,"Streptococcus pneumoniae [6]; 18 h, Ciprofloxacin-resistant (21)",2 to 32 µg/mL
same,MIC,"Streptococcus pneumoniae [6]; 18 h, Ciprofloxacin-susceptible (94)",0.25 to 2 µg/mL
same,MIC,"Streptococcus pneumoniae [6]; 18 h, Erythromycin-resistant (37)",0.5 to 16 µg/mL
same,MIC,"Streptococcus pneumoniae [6]; 18 h, Minocycline-resistant (37)",0.25 to 16 µg/mL
same,MIC,"Streptococcus pneumoniae [6]; 18 h, Penicillin-resistant (19)",0.5 to 8 µg/mL
same,MIC50,Streptococcus pneumoniae [6]; Ciprofloxacin-resistant (21),16 µg/mL
same,MIC50,Streptococcus pneumoniae [6]; Ciprofloxacin-susceptible (94),0.5 µg/mL
same,MIC90,Streptococcus pneumoniae [6]; Ciprofloxacin-susceptible (94),1 µg/mL
same,MIC50,Streptococcus pneumoniae [6]; Erythromycin-resistant (37),1 µg/mL
same,MIC90,Streptococcus pneumoniae [6]; Erythromycin-resistant (37),2 µg/mL
same,MIC50,Streptococcus pneumoniae [6]; Minocycline-resistant (37),1 µg/mL
same,MIC90,Streptococcus pneumoniae [6]; Minocycline-resistant (37),2 µg/mL
same,MIC50,Streptococcus pneumoniae [6]; Penicillin-resistant (19),0.5 µg/mL
same,MIC90,Streptococcus pneumoniae [6]; Penicillin-resistant (19),1 µg/mL
same,MIC50,Enterococcus faecium; Enterococcus faecium (n=39),32 µg/mL
same,MIC90,Enterococcus faecium; Enterococcus faecium (n=39),128 µg/mL
same,MIC,"Enterococcus faecium; Enterococcus faecium (vanA) vancomycin resistant, strain TMS1",64 µg/mL
same,MIC,"Enterococcus faecium; Enterococcus faecium (vanA) vancomycin resistant, strain TMS2",2 µg/mL
same,MIC,"Enterococcus faecium; Enterococcus faecium (vanA) vancomycin resistant, strain TMS3",32 µg/mL
same,MIC,"Enterococcus faecium; Enterococcus faecium (vanA) vancomycin resistant, strain TMS4",32 µg/mL
same,MIC,"Enterococcus faecium; Enterococcus faecium (vanA) vancomycin resistant, strain TMS5",4 µg/mL
same,MIC,"Enterococcus faecium; Enterococcus laecium (van B) vancomycin resistant, strain TMS6",32 µg/mL
same,MIC,"Enterococcus faecium; Enterococcus laecium (van B) vancomycin resistant, strain TMS7",32 µg/mL
same,MIC90,[7],1 µg/mL
"CC1COc2c(N3CCN(C)CC3)c(F)cc3c(=O)c(C(=O)O)cn1c23 (centres unmarked) [Ofloxacin, ofloxacin]",% Susceptible,Hafnia alvei,100%
same,MIC50,Hafnia alvei,0.03 µg/mL
same,MIC90,Hafnia alvei,0.03 µg/mL
same,MIC Range,Hafnia alvei,0.03 µg/mL
same,% Susceptible,Shigella spp.,100%
same,MIC50,Shigella spp.,0.03 µg/mL
same,MIC90,Shigella spp.,0.06 µg/mL
same,MIC Range,Shigella spp.,≤0.015 to 0.06 µg/mL
same,MIC90,Haemophilus influenzae [3],0.06 µg/mL
same,MIC Range,Haemophilus influenzae [3],0.008 to 0.25 µg/mL
same,MIC Range,Streptococcus pyogenes,0.5 to 4 µg/mL
same,MIC90,Streptococcus pyogenes; read-out: MIC90,2 µg/mL
same,MIC,Salmonella spp. [5]; S. hadar (n = 2),2 µg/mL
same,MIC,Salmonella spp. [5]; S. newport (n = 1),2 µg/mL
same,% Susceptible,Salmonella spp. [5],100%
same,MIC50,Salmonella spp. [5],0.12 µg/mL
same,MIC90,Salmonella spp. [5],0.5 µg/mL
same,MIC Range,Salmonella spp. [5],0.06 to 2 µg/mL
same,MIC,Salmonella spp. [5]; [15],2 µg/mL
same,% Susceptible,Campylobacter jejuni,31.86%
same,MIC50,Campylobacter jejuni,16 µg/mL
same,MIC90,Campylobacter jejuni,32 µg/mL
same,MIC50,Escherichia coli,0.06 µg/mL
same,MIC90,Escherichia coli,0.25 µg/mL
same,MIC90,[7],2 µg/mL
